Reference: patent publication US20250241890A1, “1,4-DIUREAS AND 1,4-DITHIOUREAS AND USES THEREOF” (Purdue Research Foundation, priority 2024, published 2025)
Entries after “also recorded” stand apart in the source; their conditions may differ.

What was measured:
Format in all cases: biochemical
[1] = target: T1, α-synuclein (α-syn) (Homo sapiens, UniProt P37840); assay: PICUP assay of α-syn oligomer formation; conditions: α-syn 60 μM, compound 50 μM (~molar ratio 1:1)
T1 construct: purchased rPeptide (Watkinsville, GA)
Method: Chemical and peptide source. Dimethylsulfoxide (DMSO) and thioflavin-T (ThT) were purchased from Alfa Aesar (Ward Hill, MA). Recombinant α-synuclein (α-syn) was procured from rPeptide (WatKinsville, GA). The recombinant p-tau isoform 1N4R was prepared as published previously (Fortin et al. 2021, Sui et al. 2015, Liu et al. 2020). Concerning the preparation of tau 0N4R, a bacterial expression plasmid consisting of the vector pET30a carrying a cDNA encoding the human Tau 0N4R isoform was a kind gift of Dr. Benjamin Wolozin (Boston University). E. coli stock (Rosetta BL21 E. coli (CamR) containing pET30a [0N4R tau wt] (KanR)) was grown in LB medium supplemented with kanamycin (50 μg/mL) and chloramphenicol (50 μg/mL). Protein over-expression was induced by the addition of 1 mM IPTG for ˜18 hours at 37° C., and cells were pelleted by centrifugation at 6,000 g for 15 minutes at 4° C. The cells were resuspended in lysis buffer (10 mM Hepes, pH 7.4, 50 mM NaCl, 1 mM MgCl2, 1 mM PMSF, 1× PIC, and 0.5 mM DTT) and lysed by sonication at 30 seconds “On” and 1 minute “Off” at ˜30-45% power for ˜3-5 minutes. Lysate was centrifuged at 10,000 rpm for 10 minutes at 4° C., and supernatant was transferred with 7.8 ml (total) of 3M NaCl. The lysate was incubated for 10 minutes in 80° C. water bath, then cooled for 10 minutes in an ice bath. The lysate was centrifuged at 10,000 rpm at 4° C. for 10 minutes, and the supernatant was transferred to a new tube. The supernatant was dialyzed overnight against cation exchange buffer (50 mM MES, […], 1 mM DTT, pH 6.0). The dialysate was loaded onto a HiPrep SP HP column, and proteins were eluted with a linear gradient ranging from 50 mM to 1 M NaCl. General Characterizations. ^1H and ^13C {1H} NMR spectra were recorded using a 500 MHz Bruker instrument working at a frequency of 500 MHz for ^1H and at 126 MHz for ^13C. Chemical shifts are reported in ppm using residual solvent resonances as internal reference (δ 2.50 and δ 39.51 for ^1H and ^13C in DMSO-d6, respectively). ^1H NMR data are reported as follows. b=broad, s=singlet, d=doublet, t=triplet, q=quartet, and m=multiplet. Coupling constants are given in hertz. The purity of all compounds and synthetic intermediates was judged to be 95% or better based on ^1H NMR. IR measurements were performed in a Nicolet FTIR as thin films in the Purdue Drug Discovery facility. High-resolution mass spectrometry analyses were conducted at the MSU Mass Spectrometry facility. Thioflavin fluorescence assays. Thioflavin fluorescence assays were used to monitor fibril formation of commercial recombinant α-syn at a final concentration of 2 μM and treated with control DMSO and different compounds. The recombinant α-syn obtained from rPeptide has been validated with proper quality control to confirm the monomeric state of the protein. Kinetics of fibril formation have been performed using ThT as published previously.^6, 12, 13, 24 The fluorescence emission experiments were performed with the excitation and emission wavelengths set at 440 and 485 nm, respectively, with a Synergy HT multi-mode microplate reader (BioTek, Winooski, VT). Samples were measured in three replicates. Experiments were repeated three times using different α-syn stock solutions. For each time point, arbitrary units of fluorescence were calculated from the mean values normalized against the maximum value. The percentage of fluorescence intensity at the plateau phase in Table 1 was expressed as mean #SEM. Concerning the dose response curve depicted in FIG. 2, the data were plotted using GraphPad Prism. Photo-induced Cross-linking of Unmodified Proteins (PICUP) Assay. […] Different compounds were added to the protein solution at a final concentration of 50 μM, resulting in a molar ratio of 1:1. PICUP assays were performed with the following controls: samples without light exposition, without Ru(bpy) or ammonium persulfate, and without compound (i.e., 0.125% DMSO). […]

[2] = target: T1, α-synuclein (α-syn); assay: Thioflavin T (ThT) fluorescence assay of α-syn fibril formation; conditions: α-syn 2 μM final concentration, compounds at 100 μM, average of three replicates with SEM; read-out: % ThT intensity (100 μM), maximum ThT intensity in percentage
Method: Chemical and peptide source. Dimethylsulfoxide (DMSO) and thioflavin-T (ThT) were purchased from Alfa Aesar (Ward Hill, MA). Recombinant α-synuclein (α-syn) was procured from rPeptide (WatKinsville, GA). The recombinant p-tau isoform 1N4R was prepared as published previously (Fortin et al. 2021, Sui et al. 2015, Liu et al. 2020). Concerning the preparation of tau 0N4R, a bacterial expression plasmid consisting of the vector pET30a carrying a cDNA encoding the human Tau 0N4R isoform was a kind gift of Dr. Benjamin Wolozin (Boston University). E. coli stock (Rosetta BL21 E. coli (CamR) containing pET30a [0N4R tau wt] (KanR)) was grown in LB medium supplemented with kanamycin (50 μg/mL) and chloramphenicol (50 μg/mL). Protein over-expression was induced by the addition of 1 mM IPTG for ˜18 hours at 37° C., and cells were pelleted by centrifugation at 6,000 g for 15 minutes at 4° C. The cells were resuspended in lysis buffer (10 mM Hepes, pH 7.4, 50 mM NaCl, 1 mM MgCl2, 1 mM PMSF, 1× PIC, and 0.5 mM DTT) and lysed by sonication at 30 seconds “On” and 1 minute “Off” at ˜30-45% power for ˜3-5 minutes. Lysate was centrifuged at 10,000 rpm for 10 minutes at 4° C., and supernatant was transferred with 7.8 ml (total) of 3M NaCl. The lysate was incubated for 10 minutes in 80° C. water bath, then cooled for 10 minutes in an ice bath. The lysate was centrifuged at 10,000 rpm at 4° C. for 10 minutes, and the supernatant was transferred to a new tube. The supernatant was dialyzed overnight against cation exchange buffer (50 mM MES, […], 1 mM DTT, pH 6.0). The dialysate was loaded onto a HiPrep SP HP column, and proteins were eluted with a linear gradient ranging from 50 mM to 1 M NaCl. General Characterizations. ^1H and ^13C {1H} NMR spectra were recorded using a 500 MHz Bruker instrument working at a frequency of 500 MHz for ^1H and at 126 MHz for ^13C. Chemical shifts are reported in ppm using residual solvent resonances as internal reference (δ 2.50 and δ 39.51 for ^1H and ^13C in DMSO-d6, respectively). ^1H NMR data are reported as follows. b=broad, s=singlet, d=doublet, t=triplet, q=quartet, and m=multiplet. Coupling constants are given in hertz. The purity of all compounds and synthetic intermediates was judged to be 95% or better based on ^1H NMR. IR measurements were performed in a Nicolet FTIR as thin films in the Purdue Drug Discovery facility. High-resolution mass spectrometry analyses were conducted at the MSU Mass Spectrometry facility. Thioflavin fluorescence assays. […] The recombinant α-syn obtained from rPeptide has been validated with proper quality control to confirm the monomeric state of the protein. Kinetics of fibril formation have been performed using ThT as published previously.^6, 12, 13, 24 The fluorescence emission experiments were performed with the excitation and emission wavelengths set at 440 and 485 nm, respectively, with a Synergy HT multi-mode microplate reader (BioTek, Winooski, VT). Samples were measured in three replicates. Experiments were repeated three times using different α-syn stock solutions. For each time point, arbitrary units of fluorescence were calculated from the mean values normalized against the maximum value. The percentage of fluorescence intensity at the plateau phase in Table 1 was expressed as mean #SEM. Concerning the dose response curve depicted in FIG. 2, the data were plotted using GraphPad Prism. Photo-induced Cross-linking of Unmodified Proteins (PICUP) Assay. To induce oligomerization by cross-linking, α-syn (from Rpeptide, LLC) was diluted in 10 mM phosphate buffer (pH 7.4) to reach a final concentration of 50 μM. Different compounds were added to the protein solution at a final concentration of 50 μM, resulting in a molar ratio of 1:1. PICUP assays were performed with the following controls: samples without light exposition, without Ru(bpy) or ammonium persulfate, and without compound (i.e., 0.125% DMSO). […]

[3] = target: T2, tau isoform 0N4R (Homo sapiens, UniProt P10636); assay: PICUP assay of tau 0N4R oligomer formation; conditions: tau 10 μM, compound 50 μM (molar ratio 1:5)
T2 construct: made in house; host or cells: Rosetta BL21 E. coli
T2 sequence (P10636 1-383 isoform P10636-6): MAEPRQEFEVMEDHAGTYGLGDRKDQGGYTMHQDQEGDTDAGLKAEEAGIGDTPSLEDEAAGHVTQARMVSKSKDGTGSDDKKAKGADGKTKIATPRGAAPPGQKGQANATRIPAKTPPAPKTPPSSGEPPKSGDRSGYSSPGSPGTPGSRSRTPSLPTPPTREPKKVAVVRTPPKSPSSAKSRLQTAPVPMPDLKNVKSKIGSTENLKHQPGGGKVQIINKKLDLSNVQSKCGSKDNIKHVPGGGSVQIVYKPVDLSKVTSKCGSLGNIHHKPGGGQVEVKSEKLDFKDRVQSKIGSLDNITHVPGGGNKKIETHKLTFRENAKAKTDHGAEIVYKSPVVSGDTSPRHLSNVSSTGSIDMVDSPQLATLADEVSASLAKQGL
Method: FIG. 5. […] Compounds 1, 2, and 8 were selected for their α-syn anti-oligomerization activity. Compound 7 was used as di-urea counterpart of compound 8, as compound 1 is the di-urea counterpart of compound 2, a dithiourea derivative. Tau (10 μM) was cross-linked (PICUP assay) with different concentrations of the di-substituted aminoindolyl derivatives at 50 μM (molar ratio 1:5).
Chemical and peptide source. Dimethylsulfoxide (DMSO) and thioflavin-T (ThT) were purchased from Alfa Aesar (Ward Hill, MA). Recombinant α-synuclein (α-syn) was procured from rPeptide (WatKinsville, GA). The recombinant p-tau isoform 1N4R was prepared as published previously (Fortin et al. 2021, Sui et al. 2015, Liu et al. 2020). Concerning the preparation of tau 0N4R, a bacterial expression plasmid consisting of the vector pET30a carrying a cDNA encoding the human Tau 0N4R isoform was a kind gift of Dr. Benjamin Wolozin (Boston University). E. coli stock (Rosetta BL21 E. coli (CamR) containing pET30a [0N4R tau wt] (KanR)) was grown in LB medium supplemented with kanamycin (50 μg/mL) and chloramphenicol (50 μg/mL). […] General Characterizations. ^1H and ^13C {1H} NMR spectra were recorded using a 500 MHz Bruker instrument working at a frequency of 500 MHz for ^1H and at 126 MHz for ^13C. […] Thioflavin fluorescence assays. Thioflavin fluorescence assays were used to monitor fibril formation of commercial recombinant α-syn at a final concentration of 2 μM and treated with control DMSO and different compounds. […] Kinetics of fibril formation have been performed using ThT as published previously.^6, 12, 13, 24 The fluorescence emission experiments were performed with the excitation and emission wavelengths set at 440 and 485 nm, respectively, with a Synergy HT multi-mode microplate reader (BioTek, Winooski, VT). Samples were measured in three replicates. […] For each time point, arbitrary units of fluorescence were calculated from the mean values normalized against the maximum value. The percentage of fluorescence intensity at the plateau phase in Table 1 was expressed as mean #SEM. […]

remaining activity at 100 µM [2] [%]	Structure (SMILES)	effect on α-syn oligomer formation (high molecular weight bands) by PICUP [1]	effect on tau 0N4R oligomer formation by PICUP [3]
46.2	S=C(Nc1ccc(NC(=S)Nc2ccc3[nH]ccc3c2)cc1)Nc1ccc2[nH]ccc2c1 [Compound 4, 3-(1H-indol-5-yl)-1-(4-{[(1H-indol-5-yl)carbamothioyl]amino}phenyl)thiourea]	mediocre; also recorded: reduced slightly	
58.7	O=C(Nc1ccc(NC(=O)Nc2ccc3cc[nH]c3c2)cc1)Nc1ccc2cc[nH]c2c1 [Compound 5, 3-(1H-indol-6-yl)-1-(4-{[(1H-indol-6-yl)carbamoyl]amino}phenyl)urea]	mediocre; also recorded: reduced slightly	
36.1	S=C(Nc1ccc(NC(=S)Nc2ccc3cc[nH]c3c2)cc1)Nc1ccc2cc[nH]c2c1 [Compound 6, 3-(1H-indol-6-yl)-1-(4-{[(1H-indol-6-yl)carbamothioyl]amino}phenyl)thiourea]	mediocre; also recorded: reduced slightly	
52.4	O=C(Nc1ccc(NC(=O)Nc2cccc3cc[nH]c23)cc1)Nc1cccc2cc[nH]c12 [Compound 7, 3-(1H-indol-7-yl)-1-(4-{[(1H-indol-7-yl)carbamoyl]amino}phenyl)urea]		None of these compounds were able to reduce the tau 0N4R oligomer formation
